The target of data set [1] is T1, porcine pancreatic lipase (Sus scrofa, UniProt P00591).
T1 sequence (P00591 1-450): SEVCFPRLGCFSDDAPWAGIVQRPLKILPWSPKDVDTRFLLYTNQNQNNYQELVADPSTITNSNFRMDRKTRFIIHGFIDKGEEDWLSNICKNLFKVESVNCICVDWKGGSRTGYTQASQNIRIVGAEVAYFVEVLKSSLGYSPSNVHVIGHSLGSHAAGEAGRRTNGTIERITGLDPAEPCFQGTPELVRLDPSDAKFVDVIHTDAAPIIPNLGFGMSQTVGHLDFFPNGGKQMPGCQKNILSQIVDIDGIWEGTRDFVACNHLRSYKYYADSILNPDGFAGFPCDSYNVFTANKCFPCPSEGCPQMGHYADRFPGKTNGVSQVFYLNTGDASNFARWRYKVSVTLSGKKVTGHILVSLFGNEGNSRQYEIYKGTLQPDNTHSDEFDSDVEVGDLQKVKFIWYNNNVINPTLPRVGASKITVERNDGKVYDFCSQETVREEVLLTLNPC
Put plainly: in vitro pancreatic lipase activity test (lipolytic release of p-nitrophenol from p-nitrophenyl palmitate, extinction at 405 nm). The note with it: read-out: residual lipase activity, relative to the original initial lipolytic activity; for remaining activity at 0.182 µM: test substance concentration 0.182 μM; for remaining activity at 0.091 µM: test substance concentration 0.091 μM. The data set is classed as biochemical. As for the experimental part:
In this test the inhibition of the lipolytic action of porcine pancreatic lipase with respect to the test substrate p-nitrophenyl palmitate under the influence of the test substances of Formula I was determined. Therein, the change in the relative extinction of the investigated solutions caused by the lipolytic release of p-nitrophenol from p-nitrophenyl palmitate was measured. The residual activity of the lipase remaining after the addition of the test substances is given in percent, relative to the original initial lipolytic activity. The example numbers quoted relate to the preparation examples given below.
The reagents given below are prepared: • 1. Substrate Solution • For the preparation of a “solution A”, 45 mg p-nitrophenyl palmitate was dissolved in 15 ml isopropanol by sonication with ultrasound. For the preparation of a “solution B” 310 mg Na-deoxycholate dry substance and 150 mg gum arabic were dissolved in 135 ml 0.05 M sodium phosphate buffer (pH=8.0). 5 minutes before the test was performed, 9 ml “solution B” was mixed with 1 ml “solution A” to form a “solution C” and brought to a temperature of 38° C. • 2. Pancreatic Lipase Solution • 100 mg FIP-lipase standard LS7 (porcine pancreatic lipase, 36,700 FIP units/g) were dissolved in 50 ml ice-cold 1%-strength aqueous sodium chloride solution and filtered through a 0.2 μm-syringe filter. After determination of the lipase activity in accordance with FIP, the solution was set to an activity of 40 FIP units/ml with 1%-strength aqueous sodium chloride solution. Dilute pancreatic lipase solutions which had activities of in each case 10, 20 and 30 FIP units/ml were also prepared from the pancreatic lipase solution for a calibration series by diluting with 1%-strength aqueous sodium chloride solution. • 3. Inhibitor Solutions • The lipase-inhibitory compounds of Formula I were dissolved in various concentrations in dimethyl sulfoxide (DMSO), so that between 2.0 and 800 nmol of the inhibitor were present in 100 μl inhibitor solution. Pure DMSO was used to determine the blank reading. Performance of the Test
100 μl of the inhibitor solution of a given concentration prepared as described above was temperature-controlled for 5 minutes in the cell changer of a photometer (Biochrom 4060). Then 1 ml of the above “solution C” was added with stirring. Then the reaction was started by addition of 100 μl pancreatic lipase solution with stirring. 2 minutes after the start of the reaction, the extinction of each sample was detected for 4 minutes at 405 nm.
In each case, in addition to the sample measurement, a calibration series was also measured to determine the lipase activity. […] The calibration series served to determine the lipase activity. To determine the calibration series, the lipase units used were plotted against the extinction values (dE/min) determined in each case. Using these calibration lines and the extinction values determined for the respective incubation batches, the lipase activity can be determined for each sample. […] To determine the blank reading, 100 μl DMSO were mixed with 1 ml “solution C” and the reaction was started by addition of 100 μl of a lipase solution.
The measured value of the photometer per batch (dE/min.) is yielded by the difference in the extinction values after the second and sixth minute (dE) divided by the measuring time (dt=4 min.). The blank reading is determined analogously and then subtracted from the measured value. The residual activity can be read off via the calibration line by means of the dE value calculated in this manner.
In the pancreatic lipase activity test set forth above, the test substances given below each in a concentration (c) of 0.727 μM (unless otherwise stated) caused an inhibition of the lipase activity to the fraction of the original initial activity given below. The compounds of Examples 17, 28, 29, 32, 39, 40, 47, 48, 56, 58 and 59 were measured in a concentration of 0.364 μM each time. […]

Where [2] appears, read: test substance concentration (c) 0.727 μM, substrate p-nitrophenyl palmitate.
The mark [3] stands for this setting: substrate p-nitrophenyl palmitate.
Where [4] appears, read: range of examples with mixed concentrations: 0.727 μM unless otherwise stated, Ex. 17, 28, 29, 32, 39, 40, 47, 48, 56, 58, 59 at 0.364 μM, 21, 35, 37, 38, 49, 50, 51, 54, 55, 64 at 0.182 μM, 46, 61, 62, 65 at 0.091 μM.

Where two headings read alike, the source gives them in different places. Bounds are passed on as bounds.

One may read the melting point as the temperature of the solid-liquid transition.

On to `O=C(CCCCCCCCCCOc1ccccc1)C(F)(F)F` [Example 5, 1,1,1-trifluoro-12-phenoxy-dodecan-2-one], for which the melting point was 47 to 49 °C. Further, the remaining activity at 0.727 µM in data set [1] (setting [2]) is at most 60%.

For the molecule `O=C(CCCCCCCCCc1ccccc1)C(F)(F)F` [Example 8, 1,1,1-trifluoro-11-phenyl-undecan-2-one], the remaining activity at 0.727 µM in data set [1] (setting [2]) was at most 60%.

In the case of `COc1ccc(CCCC(=O)C(F)(F)F)cc1` [Example 11, 5-(4-methoxyphenyl)-1,1,1-trifluoropentan-2-one], in data set [1] (setting [2]), the remaining activity at 0.727 µM was at most 60%.

Regarding `O=C(CCCOc1ccc(OCCCc2ccccc2)cc1)C(F)(F)F` [Example 32, 1,1,1-trifluoro-5-[4-(3-phenylpropoxy)phenoxy]pentan-2-one], the melting point lay in the range of 32 to 35 °C.

On to `O=C(CCCC(=O)C(F)(F)F)c1cccc(OCc2ccccc2)c1` [Example 34, 6,6,6-trifluoro-1-(3-benzyloxyphenyl)hexane-1,5-dione], for which the remaining activity at 0.727 µM in data set [1] (setting [2]) was at most 20%.

For `COc1ccc(C(=O)CCCC(=O)C(F)(F)F)cc1CCCCc1ccccc1` [Example 35, 6,6,6-trifluoro-1-[4-methoxy-3-(4-phenylbutyl)phenyl]hexane-1,5-dione], in data set [1] (setting [3]), the remaining activity at 0.182 µM was at most 35%.

As to `O=C(CCCC(=O)C(F)(F)F)c1ccc(-c2cccc3ccccc23)cc1` [Example 37, 6,6,6-trifluoro-1-[4-(1-naphthyl)phenyl]hexane-1,5-dione], the remaining activity at 0.182 µM in data set [1] (setting [3]) is at most 20%.

With `COc1ccc(C(=O)C(CCCCOc2ccccc2)CCC(=O)C(F)(F)F)cc1` (stereo not shown) [Example 38, 6,6,6-trifluoro-1-(4-methoxyphenyl)-2-(4-phenoxybutyl)hexane-1,5-dione], in data set [1] (setting [3]), the remaining activity at 0.182 µM was at most 20%.

Turning to `O=C(CCCC(=O)C(F)(F)F)c1ccc(OCCCCOc2ccccc2)cc1` [Example 54, 6,6,6-trifluoro-1-(4-(4-phenoxybutoxy)phenyl)hexane-1,5-dione], the melting point is 78.8 to 80.4 °C. Besides, the remaining activity at 0.727 µM in data set [1] (setting [4]) is at most 60%. Besides, in data set [1] (setting [3]), the remaining activity at 0.182 µM was at most 35%.

In turn, `O=C(CCCC(=O)C(F)(F)F)c1ccc(OCCCc2ccccc2)cc1` [Example 55, 6,6,6-trifluoro-1-(4-(3-phenylpropoxy)phenyl)hexane-1,5-dione] yielded a melting point of 52.6 to 54.5 °C. For the same molecule, the remaining activity at 0.727 µM in data set [1] (setting [4]) was at most 60%. In addition, the remaining activity at 0.182 µM in data set [1] (setting [3]) was at most 35%.

`O=C(CCCC(=O)C(F)(F)F)c1ccc(Br)cc1` [Example 57, 1-(4-bromophenyl)-6,6,6-trifluorohexane-1,5-dione]: the remaining activity at 0.727 µM in data set [1] (setting [2]) was at most 35%.

For `O=C(CCCC(=O)C(F)(F)F)c1ccc2c(c1)CCCC2` [Example 60, 6,6,6-trifluoro-1-(5,6,7,8-tetrahydronaphthalen-2-yl)hexane-1,5-dione], the remaining activity at 0.727 µM in data set [1] (setting [4]) is at most 20%.

Consider `O=C(CCCC(=O)C(F)(F)F)c1ccc(-c2ccc3ccccc3c2)cc1` [Example 62, 6,6,6-trifluoro-1-(4-(2-naphthyl)phenyl)hexane-1,5-dione], for which the remaining activity at 0.727 µM in data set [1] (setting [4]) is at most 20%. In data set [1] (setting [3]), the remaining activity at 0.091 µM is at most 60%.

In the case of `CCCCCCCCCCCCCCCCOc1ccc(C(=O)CCCC(=O)C(F)(F)F)cc1` [Example 63, 6,6,6-trifluoro-1-(4-(hexadecyloxy)phenyl)hexane-1,5-dione], the melting point was 67.7 to 68.9 °C.

As to `CCCCCCCCCCCCCCOc1ccc(C(=O)CCCC(=O)C(F)(F)F)cc1` [Example 65, 6,6,6-trifluoro-1-(4-(tetradecyloxy)phenyl)hexane-1,5-dione], the melting point was 63.3 to 65 °C. Besides, the remaining activity at 0.091 µM in data set [1] (setting [3]) was at most 20%.

The values are drawn from patent publication US6930207B2, “Trifluoroacetylalkyl-substituted phenyl, phenol and benzoyl compounds and related methods of treatment” (Solvay Pharmaceutical GmbH, priority 2001, dated 2005).
